In patent publication US10017791B2, “Coryneform bacterium transformant and process for producing 4-hydroxybenzoic acid or salt thereof using the same” (GREEN PHENOL DEVELOPMENT CO., LTD., priority 2014, dated 2018):

Key:
Pseudomonas putida S12 = assay: Growth inhibition test in aerobic culture (influence of 4-HBA); format: cell-based; details: 200 mM 4-HBA, LB liquid medium, 30° C., OD610
Experimental: (§1) A growth inhibition test in aerobic culture was performed to examine the influence of 4-HBA on Corynebacterium glutamicum, Escherichia coli, Pseudomonas putida, and Rhodobacter sphaeroides. Pseudomonas putida S12, which was used for the test, is reported to be a solvent-resistant strain to produce 4-HBA via tyrosine.
Pseudomonas putida S12 was applied to LB agar medium (1% polypeptone, 0.5% yeast extract, 0.5% NaCl and 1.5% agar) and was left stand in the dark at 30° C. for 15 hours.
An inoculation loop of the Pseudomonas putida S12 grown on a plate as above was applied to LB liquid medium (1% polypeptone, 0.5% yeast extract, and 0.5% NaCl), and aerobic culture was performed with shaking at 30° C. for 13 hours.
(§2) The Pseudomonas putida S12 grown in the above conditions was inoculated into 100 mL of LB liquid medium in such a way that the initial bacterial cell concentration would be OD610=0.05, 4-HBA was added at the same time in such a way that the final concentration would be 0, 100, 200, or 300 mM, and aerobic culture was performed with shaking at 30° C. The growth of the bacterial cells was determined by absorbance measurement at OD610.

Escherichia coli JM109 = assay: as above; format: cell-based; details: LB liquid medium, 37° C., OD610
Experimental: as §1
Escherichia coli JM109 was applied to LB agar medium (1% polypeptone, 0.5% yeast extract, 0.5% NaCl and 1.5% agar) and was left stand in the dark at 37° C. for 15 hours.
An inoculation loop of the Escherichia coli JM109 grown on a plate as above was applied to LB liquid medium (1% polypeptone, 0.5% yeast extract, and 0.5% NaCl), and aerobic culture was performed with shaking at 37° C. for 13 hours.
as §2, with “Escherichia coli JM109” for “Pseudomonas putida S12”, “OD=0.05,” for “OD610=0.05,”, “100,” for “100, 200,”, “200” for “300”, “37°” for “30°”

[1] = target: chorismate-pyruvate lyase of Providencia sneebia (Providencia sneebia, UniProt K8VZZ4); assay: Product inhibition of chorismate-pyruvate lyase activity by 4-HBA (IC50); format: biochemical; details: cell lysate supernatant of strain HBA4
Chain of chorismate-pyruvate lyase of Providencia sneebia (K8VZZ4 1-168): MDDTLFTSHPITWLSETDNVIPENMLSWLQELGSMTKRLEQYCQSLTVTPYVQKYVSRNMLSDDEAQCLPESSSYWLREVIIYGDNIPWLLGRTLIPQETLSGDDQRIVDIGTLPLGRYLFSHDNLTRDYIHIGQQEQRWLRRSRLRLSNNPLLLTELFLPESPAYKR
Experimental: (§3) Each kind of the bacterial cells cultured and proliferated as above was collected by centrifugation (8,000 rpm, 4° C., 10 minutes). After disrupting the bacterial cells by sonication, centrifugation (15,000 rpm, 4° C., 20 minutes) was performed. Using the supernatant of the cell lysate as a crude enzyme liquid, chorismate-pyruvate lyase activity was determined by the following method. The crude enzyme liquid, 50 mM Tris-HCl (pH 7.5), 0.5 mM of chorismate Ba salt, 0.2 mM of NADH, 0.2 M of NaCl and 5 units of lactate dehydrogenase were mixed, the reaction was allowed to proceed at 33° C., and the decrease in absorbance of NADH at 340 nm was monitored to analyze the initial rate of the reaction. From the initial rate of the reaction and the protein concentration, the specific activity was calculated (the amount of the enzyme that produces 1 μmol of 4-HBA per minute was defined as 1 unit). (After the reaction mixture was filtered, the resulting 4-HBA was subjected to HPLC for direct detection of the peak of 4-HBA (Cosmosil C18 ARII made by Nacalai Tesque, mobile phase: 20% methanol and 0.07% perchloric acid) to separately confirm that the two assay methods were similar in quantitative performance.)
(§4) Using the supernatants of the cell lysates of the strains of HBA-1 to HBA-21 prepared in Example 2, inhibition by the product, 4-HBA, was examined.

[2] = target: chorismate-pyruvate lyase of Shewanella putrefaciens (Shewanella putrefaciens, UniProt A0ABX8XB71); assay: as above; format: biochemical; details: cell lysate supernatant of strain HBA20
Chain of chorismate-pyruvate lyase of Shewanella putrefaciens (A0ABX8XB71 entry or part of it): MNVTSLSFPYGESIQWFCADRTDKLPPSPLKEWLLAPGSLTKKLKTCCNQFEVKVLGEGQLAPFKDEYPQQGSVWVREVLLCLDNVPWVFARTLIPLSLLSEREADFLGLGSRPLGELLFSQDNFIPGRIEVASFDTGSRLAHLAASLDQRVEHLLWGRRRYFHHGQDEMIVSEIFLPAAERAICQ
Experimental: as §3, §4

[3] = target: chorismate-pyruvate lyase of Pantoea ananatis (Pantoea ananatis, UniProt A0ACE3JNM4); assay: as above; format: biochemical; details: cell lysate supernatant of strain HBA1
Chain of chorismate-pyruvate lyase of Pantoea ananatis (A0ACE3JNM4 1-170): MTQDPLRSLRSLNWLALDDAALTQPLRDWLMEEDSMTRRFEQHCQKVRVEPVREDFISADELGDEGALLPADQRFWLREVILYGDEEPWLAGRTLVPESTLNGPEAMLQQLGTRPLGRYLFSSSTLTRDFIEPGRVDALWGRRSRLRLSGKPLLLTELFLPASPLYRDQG
Experimental: as §3, §4

[4] = target: chorismate-pyruvate lyase of Providencia alcalifaciens (Providencia alcalifaciens, UniProt B6XE56); assay: as above; format: biochemical; details: cell lysate supernatant of strain HBA6
Chain of chorismate-pyruvate lyase of Providencia alcalifaciens (B6XE56 1-167): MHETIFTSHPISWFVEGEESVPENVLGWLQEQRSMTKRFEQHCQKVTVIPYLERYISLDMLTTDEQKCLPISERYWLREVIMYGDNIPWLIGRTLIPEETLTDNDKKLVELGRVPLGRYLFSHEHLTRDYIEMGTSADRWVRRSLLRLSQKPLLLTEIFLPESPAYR
Experimental: as §3, §4

[5] = target: chorismate-pyruvate lyase of Enterobacter cloacae (Enterobacter cloacae, UniProt A0A0H3CH24); assay: as above; format: biochemical; details: cell lysate supernatant of strain HBA16
Chain of chorismate-pyruvate lyase of Enterobacter cloacae (A0A0H3CH24 entry or part of it): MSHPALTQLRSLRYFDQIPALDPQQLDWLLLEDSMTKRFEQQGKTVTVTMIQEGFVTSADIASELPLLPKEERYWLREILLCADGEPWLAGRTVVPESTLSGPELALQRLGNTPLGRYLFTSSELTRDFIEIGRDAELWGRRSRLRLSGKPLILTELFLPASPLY
Experimental: as §3, §4

[6] = target: chorismate-pyruvate lyase of Citrobacter koseri (Citrobacter koseri, UniProt A8AN89); assay: as above; format: biochemical; details: cell lysate supernatant of strain HBA14
Chain of chorismate-pyruvate lyase of Citrobacter koseri (A8AN89 whole entry, looked up): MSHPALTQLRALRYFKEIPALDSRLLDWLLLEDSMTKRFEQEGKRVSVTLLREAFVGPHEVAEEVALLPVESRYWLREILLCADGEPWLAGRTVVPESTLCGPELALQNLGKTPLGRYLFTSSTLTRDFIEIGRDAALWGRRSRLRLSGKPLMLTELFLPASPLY
Experimental: as §3, §4

[7] = target: T1, chorismate-pyruvate lyase of Escherichia coli (Escherichia coli, UniProt P26602); assay: as above; format: biochemical; details: cell lysate supernatant of strain HBA8
T1 construct: made in house; host or cells: Corynebacterium glutamicum R (crude cell-lysate supernatant)
T1 sequence (P26602 whole entry): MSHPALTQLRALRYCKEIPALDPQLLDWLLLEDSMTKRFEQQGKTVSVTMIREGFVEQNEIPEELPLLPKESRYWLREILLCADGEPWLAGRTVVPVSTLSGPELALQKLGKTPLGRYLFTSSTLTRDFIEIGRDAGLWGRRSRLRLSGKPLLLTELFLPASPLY
Experimental: as §3, §4

[8] = target: chorismate-pyruvate lyase of Pseudoalteromonas piscicida (Pseudoalteromonas piscicida, UniProt A0ABN5CDX6, M1V); assay: as above; format: biochemical; details: cell lysate supernatant of strain HBA10
Chain of chorismate-pyruvate lyase of Pseudoalteromonas piscicida (A0ABN5CDX6 1-160, stated change not applied): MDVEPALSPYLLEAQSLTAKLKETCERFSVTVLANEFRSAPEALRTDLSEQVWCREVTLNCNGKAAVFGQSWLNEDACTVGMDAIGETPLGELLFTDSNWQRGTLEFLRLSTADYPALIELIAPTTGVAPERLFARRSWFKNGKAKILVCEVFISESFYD
Experimental: as §3, §4

[9] = target: chorismate-pyruvate lyase of Morganella morganii (Morganella morganii, UniProt M1SIE1); assay: as above; format: biochemical; details: cell lysate supernatant of strain HBA18
Chain of chorismate-pyruvate lyase of Morganella morganii (M1SIE1 entry or part of it): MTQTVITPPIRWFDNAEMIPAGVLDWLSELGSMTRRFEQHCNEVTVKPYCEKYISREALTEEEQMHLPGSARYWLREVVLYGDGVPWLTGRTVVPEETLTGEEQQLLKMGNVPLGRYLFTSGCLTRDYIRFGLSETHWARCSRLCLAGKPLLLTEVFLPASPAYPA
Experimental: as §3, §4

[10] = target: chorismate-pyruvate lyase of Escherichia fergusonii (Escherichia fergusonii, UniProt B7LL11); assay: as above; format: biochemical; details: cell lysate supernatant of strain HBA9
Chain of chorismate-pyruvate lyase of Escherichia fergusonii (B7LL11 entry or part of it): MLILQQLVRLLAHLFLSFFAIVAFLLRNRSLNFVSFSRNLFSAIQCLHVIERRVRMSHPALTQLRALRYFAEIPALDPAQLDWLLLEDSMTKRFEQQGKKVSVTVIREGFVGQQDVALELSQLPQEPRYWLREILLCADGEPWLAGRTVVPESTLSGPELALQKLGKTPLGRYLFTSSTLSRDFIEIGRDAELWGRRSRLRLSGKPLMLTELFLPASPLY
Experimental: as §3, §4

[11] = target: chorismate-pyruvate lyase of Providencia stuartii (Providencia stuartii, UniProt A0A1S1HSD5); assay: as above; format: biochemical; details: cell lysate supernatant of strain HBA3
Chain of chorismate-pyruvate lyase of Providencia stuartii (A0A1S1HSD5 entry or part of it): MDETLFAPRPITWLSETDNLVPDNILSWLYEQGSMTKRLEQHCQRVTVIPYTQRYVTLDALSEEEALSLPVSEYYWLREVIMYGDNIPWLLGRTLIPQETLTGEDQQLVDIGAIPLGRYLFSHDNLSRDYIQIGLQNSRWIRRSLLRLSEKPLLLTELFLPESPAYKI
Experimental: as §3, §4

[12] = target: chorismate-pyruvate lyase of Enterobacter aerogenes (Klebsiella aerogenes, UniProt A0A0H3FPH2); assay: as above; format: biochemical; details: cell lysate supernatant of strain HBA15
Chain of chorismate-pyruvate lyase of Enterobacter aerogenes (A0A0H3FPH2 entry or part of it): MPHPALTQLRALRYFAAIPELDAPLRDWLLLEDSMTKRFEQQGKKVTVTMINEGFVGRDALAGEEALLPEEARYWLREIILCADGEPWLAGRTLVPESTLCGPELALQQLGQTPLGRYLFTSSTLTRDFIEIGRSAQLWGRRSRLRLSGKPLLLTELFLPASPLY
Experimental: as §3, §4

[13] = target: chorismate-pyruvate lyase of Pseudoalteromonas haloplanktis (Pseudoalteromonas haloplanktis, UniProt A0A9W4VR20, L6V); assay: as above; format: biochemical
Chain of chorismate-pyruvate lyase of Pseudoalteromonas haloplanktis (A0A9W4VR20 entry or part of it L6V): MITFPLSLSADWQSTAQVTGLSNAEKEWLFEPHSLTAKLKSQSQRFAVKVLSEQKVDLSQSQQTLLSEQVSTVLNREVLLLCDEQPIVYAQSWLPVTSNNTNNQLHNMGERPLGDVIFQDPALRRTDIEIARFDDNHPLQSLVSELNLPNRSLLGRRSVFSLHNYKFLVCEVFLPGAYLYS
Experimental: as §3, §4

[14] = target: chorismate-pyruvate lyase of Azotobacter vinelandii (Azotobacter vinelandii, UniProt C1DK46); assay: as above; format: biochemical; details: cell lysate supernatant of strain HBA19
Chain of chorismate-pyruvate lyase of Azotobacter vinelandii (C1DK46 1-183): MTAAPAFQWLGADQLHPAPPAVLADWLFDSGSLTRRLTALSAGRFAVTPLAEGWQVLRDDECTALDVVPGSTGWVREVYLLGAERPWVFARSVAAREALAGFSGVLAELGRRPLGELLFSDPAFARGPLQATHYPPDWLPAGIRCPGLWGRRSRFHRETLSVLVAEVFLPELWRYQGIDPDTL
Experimental: as §3, §4

[15] = target: T2, chorismate-pyruvate lyase of Cronobacter sakazakii (Cronobacter sakazakii, UniProt A7MPN9); assay: as above; format: biochemical; details: cell lysate supernatant of strain HBA12
T2 construct: 5′-[…]-3′
T2 sequence (A7MPN9 whole entry, looked up): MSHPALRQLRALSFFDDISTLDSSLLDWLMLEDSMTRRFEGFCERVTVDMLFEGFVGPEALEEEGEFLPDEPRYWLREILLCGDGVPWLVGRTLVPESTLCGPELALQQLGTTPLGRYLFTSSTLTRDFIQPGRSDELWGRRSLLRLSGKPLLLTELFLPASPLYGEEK
Experimental: as §3, §4

[16] = target: chorismate-pyruvate lyase of Cupriavidus taiwanensis (Cupriavidus taiwanensis, UniProt B3R6T5); assay: as above; format: biochemical
Chain of chorismate-pyruvate lyase of Cupriavidus taiwanensis (B3R6T5 entry or part of it): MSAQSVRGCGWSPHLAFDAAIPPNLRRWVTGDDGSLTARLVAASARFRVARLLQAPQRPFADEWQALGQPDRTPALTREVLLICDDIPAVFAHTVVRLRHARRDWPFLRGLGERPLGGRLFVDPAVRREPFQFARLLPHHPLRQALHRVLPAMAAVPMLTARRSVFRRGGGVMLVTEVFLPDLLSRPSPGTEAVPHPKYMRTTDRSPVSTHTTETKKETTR
Experimental: as §3, §4

[17] = target: chorismate-pyruvate lyase of Providencia rustigianii (Providencia rustigianii, UniProt D1P752); assay: as above; format: biochemical; details: cell lysate supernatant of strain HBA2
Chain of chorismate-pyruvate lyase of Providencia rustigianii (D1P752 1-167): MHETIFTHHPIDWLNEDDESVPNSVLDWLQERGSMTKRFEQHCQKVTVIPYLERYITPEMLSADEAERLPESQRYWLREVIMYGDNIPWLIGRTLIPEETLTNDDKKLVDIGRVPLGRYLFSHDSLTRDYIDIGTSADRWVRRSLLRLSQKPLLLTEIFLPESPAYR
Experimental: as §3, §4

[18] = target: chorismate-pyruvate lyase of Providencia burhodogranariea (Providencia burhodogranariea, UniProt K8VY45); assay: as above; format: biochemical; details: cell lysate supernatant of strain HBA7
Chain of chorismate-pyruvate lyase of Providencia burhodogranariea (K8VY45 entry or part of it): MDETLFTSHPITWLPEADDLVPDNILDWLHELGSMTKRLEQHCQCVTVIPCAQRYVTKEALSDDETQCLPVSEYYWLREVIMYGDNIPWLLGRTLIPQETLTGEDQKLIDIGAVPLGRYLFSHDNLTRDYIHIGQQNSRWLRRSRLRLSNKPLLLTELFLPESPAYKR
Experimental: as §3, §4

[19] = target: chorismate-pyruvate lyase of Pseudomonas putida (Pseudomonas putida, UniProt Q88C66); assay: as above; format: biochemical; details: cell lysate supernatant of strain HBA17
Chain of chorismate-pyruvate lyase of Pseudomonas putida (Q88C66 whole entry): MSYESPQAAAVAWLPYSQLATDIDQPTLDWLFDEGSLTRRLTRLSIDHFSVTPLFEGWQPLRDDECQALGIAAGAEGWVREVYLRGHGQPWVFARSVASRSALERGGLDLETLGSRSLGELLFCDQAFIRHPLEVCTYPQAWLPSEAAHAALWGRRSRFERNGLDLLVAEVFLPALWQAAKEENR
Experimental: as §3, §4

Rhodobacter sphaeroides = assay: Growth inhibition test in aerobic culture (influence of 4-HBA); format: cell-based; details: LB liquid medium, 30° C., OD610
Experimental: as §1
Rhodobacter sphaeroides was applied to LB agar medium (1% polypeptone, 0.5% yeast extract, 0.5% NaCl and 1.5% agar) and was left stand in the dark at 30° C. for 20 hours.
An inoculation loop of the Rhodobacter sphaeroides grown on a plate as above was applied to LB liquid medium (1% polypeptone, 0.5% yeast extract, and 0.5% NaCl), and aerobic culture was performed with shaking at 30° C. for 13 hours.
as §2, with “Rhodobacter sphaeroides” for “Pseudomonas putida S12”, “OD=0.1,” for “OD610=0.05,”, “100,” for “100, 200,”, “200” for “300”

[20] = test system: Corynebacterium glutamicum R; assay: as above; format: cell-based; details: for Growth of Corynebacterium glutamicum: aerobic, A liquid medium, 33° C., OD610
Experimental: as §1
Corynebacterium glutamicum was applied to A agar medium (2 g of (NH2)2CO, 7 g of (NH4)2SO4, 0.5 g of KH2PO4, 0.5 g of K2HPO4, 0.5 g of MgSO4.7H2O, 1 mL of 0.06% (w/v) Fe2SO4.7H2O+0.042% (w/v) MnSO4.2H2O, 1 mL of 0.02% (w/v) biotin solution, 2 mL of 0.01% (w/v) thiamin solution, 2 g of yeast extract, 7 g of vitamin assay casamino acid, 40 g of glucose, and 15 g of agar were suspended in 1 L of distilled water) and was left stand in the dark at 33° C. for 15 hours.
An inoculation loop of Corynebacterium glutamicum R strain grown on a plate as above was inoculated into a test tube containing 10 mL of A liquid medium (2 g of (NH2)2CO, 7 g of (NH4)2SO4, 0.5 g of KH2PO4, 0.5 g of K2HPO4, 0.5 g of MgSO4.7H2O, 1 mL of 0.06% (w/v) Fe2SO4.7H2O+0.042% (w/v) MnSO4.2H2O, 1 mL of 0.02% (w/v) biotin solution, 2 mL of 0.01% (w/v) thiamin solution, 2 g of yeast extract, 7 g of vitamin assay casamino acid, and 40 g of glucose were suspended in 1 L of distilled water) and was aerobically cultured with shaking at 33° C. for 15 hours.
as §2, with “The Corynebacterium glutamicum R strain” for “The Pseudomonas putida S12”, “into 10” for “into 100”, “of A” for “of LB”, “200, 250,” for “200,”, “at 33°” for “at 30°”

SMILES: O=C(O)c1ccc(O)cc1 [Strain 4-HBA, 4-hydroxybenzoic acid]
- Growth of Pseudomonas putida S12 (Pseudomonas putida S12): completely inhibited
- Growth of Escherichia coli (Escherichia coli JM109; 100 mM 4-HBA): significantly affected
- Growth of Escherichia coli (Escherichia coli JM109; 200 mM 4-HBA): completely inhibited
- IC50 [1]: 338 µM
- IC50 [2]: 130 µM
- IC50 [3]: 69 µM
- IC50 [4]: 301 µM
- IC50 [5]: 105 µM
- IC50 [6]: 83 µM
- IC50 [7]: 67 µM
- IC50 [8]: 73 µM
- IC50 [9]: 61 µM
- IC50 [10]: 79 µM
- IC50 [11]: 368 µM
- IC50 [12]: 73 µM
- IC50 [13]: 78 µM
- IC50 [14]: 69 µM
- IC50 [15]: 76 µM
- IC50 [16]: 149 µM
- IC50 [17]: 364 µM
- IC50 [18]: 401 µM
- IC50 [19]: 68 µM
- Growth of Rhodobacter sphaeroides (Rhodobacter sphaeroides; 100 mM 4-HBA): completely inhibited
- Growth of Rhodobacter sphaeroides (Rhodobacter sphaeroides; 200 mM 4-HBA): completely inhibited
- Growth of Corynebacterium glutamicum ([20]; 200 mM 4-HBA): able to grow
- Growth, % of the OD610 of wild strain ([20]; 250 mM 4-HBA, 28 hours after the start of the culture, same extent as in the presence of 200 mM 4-HBA, data not shown): about 65%
- Growth of Corynebacterium glutamicum ([20]; 250 mM 4-HBA): able to grow
